Test results from the NIST ThermoML archive (doi:10.1016/j.jct.2012.11.002).

Conditions: Liquid, Vibrating tube method

CCOC(=O)C(C)O (racemic) [DL-ethyl lactate]
mass density [kg/m3]
Conditions	100 kPa	2500 kPa	5000 kPa	7500 kPa	10000 kPa	20000 kPa	30000 kPa	40000 kPa	50000 kPa	60000 kPa
283.15 K	1045.06	1046.77	1048.51	1050.24	1051.88	1058.39	1064.45	1070.13	1075.5	1080.55
288.15 K	1039.64	1041.39	1043.21	1044.99	1046.74	1053.28	1059.46	1065.24	1070.74	1076.04
293.15 K	1034.25	1036.05	1037.86	1039.7	1041.5	1048.3	1054.58	1060.54	1066.26	1071.55
298.15 K	1028.78	1030.66	1032.56	1034.43	1036.23	1043.21	1049.76	1055.69	1061.53	1066.96
303.15 K	1023.32	1025.21	1027.24	1029.11	1031	1038.26	1044.91	1051.19	1056.95	1062.52
308.15 K	1017.84	1019.82	1021.87	1023.84	1025.7	1033.08	1039.92	1046.28	1052.19	1057.98
313.15 K	1012.33	1014.31	1016.42	1018.41	1020.39	1027.93	1034.97	1041.52	1047.69	1053.46
318.15 K	1006.72	1008.86	1011.01	1013.1	1015.13	1022.87	1030.04	1036.74	1042.96	1048.96
323.15 K	1001.23	1003.36	1005.56	1007.68	1009.78	1017.76	1025.13	1031.99	1038.42	1044.49
328.15 K	995.54	997.8	1000.11	1002.34	1004.46	1012.65	1020.17	1027.16	1033.75	1039.99
333.15 K	989.91	992.19	994.55	996.87	999.06	1007.62	1015.4	1022.5	1029.24	1035.71
338.15 K	984.3	986.71	989.18	991.49	993.65	1002.34	1010.27	1017.75	1024.55	1031.04
